Data on 25 compounds can be found in patent publication US11161819B2, “Substituted tetrahydroisoquinoline compounds useful as GPR120 agonists” (Merck Sharp & Dohme Corp., priority 2016, dated 2021).

The target in this experiment is T1, human GPR120 (Homo sapiens, UniProt Q5NUL3).
T1 construct: expressed in transfected cells
T1 sequence (Q5NUL3 1-361): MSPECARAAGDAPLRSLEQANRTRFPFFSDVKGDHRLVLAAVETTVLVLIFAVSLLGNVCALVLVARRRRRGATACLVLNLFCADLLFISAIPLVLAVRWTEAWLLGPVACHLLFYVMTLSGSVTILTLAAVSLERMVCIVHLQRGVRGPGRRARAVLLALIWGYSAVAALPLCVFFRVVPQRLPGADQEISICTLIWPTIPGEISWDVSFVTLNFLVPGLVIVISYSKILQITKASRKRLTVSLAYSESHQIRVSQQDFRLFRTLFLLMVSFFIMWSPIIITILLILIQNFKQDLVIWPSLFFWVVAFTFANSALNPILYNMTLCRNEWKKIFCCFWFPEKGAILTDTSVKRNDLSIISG
Kind of experiment: Human GPR120 IP1 Assay (inositol phosphate turnover, CisBio IP-One kit). It is filed as cell-based. To be noted: IP1 accumulation in CHO-K1 cells stably expressing the short form of human GPR120; 60 min compound incubation; 4-parameter fit; read-out: hGPR120 EC50. From the text:
Human GPR120 IP1 Assay Principle
The binding of small molecule agonists to the G-protein-coupled receptor GPR120 activates phospholipase C, and leads to the generation of inositol 1,4,5-trisphosphate (InsP3 or IP3). IP3 is subsequently de-phosphorylated to IP1, which accumulates in cells and is stable in the presence of lithium chloride.
In the present method, agonist-induced activation of the human GPR120 receptor was monitored by measuring the accumulation of IP1 in CHO-K1 cells that were stably expressing the short form of human GPR120 (Accession #NM_001195755). Following agonist addition, GPR120 activation and subsequent accumulation of IP1 was measured using a homogeneous Time Resolved Fluorescence-based ELISA commercially available from CisBio (IP-one ELISA Kit). The IP-One ELISA was a competitive immunoassay which uses IP1 labeled with […] and a terbium cryptate-labeled anti-IP1 monoclonal antibody. […] The signal loss was then back calculated to IP1 concentration using an IP1 standard curve. Determination of IP1 concentration was a direct measure of GPR120 activation and was used to determine compound potency (EC50).
Generation of GPR120-Expressing Cells:
Human GPR120 stable cell-lines were generated in CHO cells. The expression plasmids were transfected using lipofectamine (Life Technologies) following manufacturer's instructions. Stable cell-lines were generated following drug selection and single cell cloning.
Inositol Phosphate Turnover (IP1) Assay:
The assay was performed in 384-well format. CHO cells stably expressing human GPR120 were plated at […] per well in growth medium (DMEM/F12, 10% fetal calf serum). Cell plates were then incubated 16 hours at 37 degrees in a 5% CO2 incubator. Measurement of Inositol Phosphate Turnover (IP1) was performed using the CisBio IP-One kit (Part number 62IPAPEB). After the 16 hour incubation, the growth media was removed by centrifugation using the BlueWasher (AusWasher GUI Ver. v1.0.1.8) Protocol #21-“Light Dry” and 10 ul of stimulation buffer (prepared as described in the kit) was added to each well. In a separate plate, compounds were diluted in DMSO (200-fold over the final concentration in the assay well) and 50 nl was acoustically transferred to the appropriate well in the assay cell plate. The plates were then incubated for 60 minutes at 37 degrees in a 5% CO2 incubator. 10 ul of detection buffer (also prepared as described in the IP-One kit) was added to each well and the plates were incubated at room temperature for 60 minutes in the dark. The plates were then read in a Perkin Elmer EnVision or equivalent reader able to measure FRET. Fluorescent ratio of emission at 665 and 620 nm was then converted to the IP1 concentration by back calculating from an IP1 standard curve prepared at the time of the assay. The data was normalized to % activity using a reference compound, and the EC50 values were determined using a standard 4-parameter fit.
For `O=C(O)[C@H]1C[C@@H]1c1ccc2c(c1)CCN(c1cc(OC3CCC3)cc(Cl)c1F)C2` [Example 91, (1S,2S)-2-{2-[3-chloro-5-(cyclobutyloxy)-2-fluorophenyl]-1,2,3,4-tetrahydroisoquinolin-6-yl} cyclopropane carboxylic acid], the EC50 was 0.059 µM.
The result for `O=C(O)CCc1cc2c(cc1F)CN(c1cc(OC3CCC3)cc(F)c1F)CC2` [Example 131, 3-(2-(5-cyclobutoxy-2,3-difluorophenyl)-7-fluoro-1,2,3,4-tetrahydro-isoquinolin-6-yl)propanoic acid] reads 0.174 µM; that for `O=C(O)[C@H]1C[C@@H]1c1ccc2c(c1F)CCN(c1cc(OC(F)(F)F)cc(F)c1Cl)C2` [Example 124, (1S,2S)-2-{2-[2-chloro-3-fluoro-5-(trifluoromethoxy)phenyl]-5-fluoro-1,2,3,4-tetrahydro-isoquinolin-6-yl}cyclopropane-carboxylic acid], 0.824 µM; that for `O=C(O)CCc1ccc2c(c1)CCN(c1cc(Oc3ccc(F)cn3)cc(C(F)F)c1F)C2` [Example 35, 3-(2-{3-(difluoromethyl)-2-fluoro-5-[(5-fluoropyridin-2-yl)oxy]phenyl}-1,2,3,4-tetrahydroisoquinolin-6-yl) propanoic acid], 0.312 µM.
The result for `COc1ccc(-n2nc(C)c(C#N)c2N2CCc3cc(CCCCC(=O)O)ccc3C2)cc1` [Example 133, 5-{2-[4-cyano-1-(4-methoxyphenyl)-3-methyl-1H-pyrazol-5-yl]-1,2,3,4-tetrahydroisoquinolin-6-yl} pentanoic acid] reads 0.05 µM; that for `C[C@H]1C[C@H](Oc2cc(F)c(F)c(N3CCc4c(ccc([C@@H]5C[C@H]5C(=O)O)c4F)C3)c2)C1` [Example 112, (1R,2R)-2-(2-{2,3-difluoro-5-[(trans-3-methylcyclobutyl)oxy]phenyl}-5-fluoro-1,2,3,4-tetrahydroisoquinolin-6-yl) cyclopropanecarboxylic acid], 0.042 µM; that for `O=C(O)[C@H]1C[C@@H]1c1ccc2c(c1F)CCN(c1cc(OC3CCC3)cc(Cl)c1F)C2` [Example 125, (1S,2S)-2-{2-[3-chloro-5-(cyclobutyloxy)-2-fluorophenyl]-5-fluoro-1,2,3,4-tetrahydroisoquinolin-6-yl}cyclopropane-carboxylic acid], 0.414 µM.
The result for `COc1cc(F)c(N2CCc3cc(CCC(=O)O)ccc3C2)cc1Oc1ccc(C)cn1` [Example 28, 3-(2-{2-fluoro-4-methoxy-5-[(5-methylpyridin-2-yl)oxy]phenyl}-1,2,3,4-tetrahydroisoquinolin-6-yl)propanoic acid] reads 0.169 µM.
`O=C(O)CCc1ccc2c(c1F)CCN(c1nc(OC3CCC3)ccc1F)C2` [Example 63, 3-{2-[6-(cyclobutyloxy)-3-fluoro-pyridin-2-yl]-5-fluoro-1,2,3,4-tetra-hydro-isoquinolin-6-yl} propanoic acid]: the EC50 worked out at 0.014 µM.
In the case of `CO[C@H]1C[C@H](Oc2cc(F)c(C#N)c(N3CCc4cc([C@@H]5C[C@H]5C(=O)O)ccc4C3)c2)C1` [Example 103, (1R,2R)-2-(2-{2-cyano-3-fluoro-5-[(trans-3-methoxycyclobutyl)oxy]phenyl}-1,2,3,4-tetrahydroiso-quinolin-6-yl)cyclopropane-carboxylic acid], the EC50 was found to be 3 µM.
As to `O=C(O)CCc1ccc2c(c1F)CCN(c1cc(CC3CCC3)ccc1F)C2` [Example 23, 3-{2-[5-(cyclobutylmethyl)-2-fluorophenyl]-5-fluoro-1,2,3,4-tetrahydroisoquinolin-6-yl}propanoic acid], the EC50 was found to be 0.06 µM.
Then `CO[C@H]1C[C@H](Oc2ccc(C#N)c(N3CCc4cc(CCC(=O)O)ccc4C3)c2)C1` [Example 48, 3-(2-{2-cyano-5-[(trans-3-methoxy-cyclobutyl)oxy]phenyl}-1,2,3,4-tetrahydroisoquinolin-6-yl)-propanoic acid], with 0.596 µM.
Turning to `CC(Cc1ccc2c(c1)CCN(c1cc(OC(F)(F)F)ccc1F)C2)C(=O)O` (stereo not shown) [Example 52], the EC50 is 0.51 µM.
With `O=C(O)CCc1ccc2c(c1Cl)CCN(c1cc(OC(F)(F)F)ccc1F)C2` [Example 72, 3-{5-chloro-2-[2-fluoro-5-(trifluoromethoxy)phenyl]-1,2,3,4-tetrahydroiso-quinolin-6-yl}propanoic acid], the EC50 was 1.17 µM.
For the compound `O=C(O)CCc1ccc2c(c1F)CCN(c1cccc(C3CC3)n1)C2` [Example 154, 3-[2-(6-cyclopropylpyridin-2-yl)-5-fluoro-1,2,3,4-tetrahydroiso-quinolin-6-yl]propanoic acid], the EC50 came to 0.167 µM.
The result for `O=C(O)CCc1cc2c(cc1F)CN(c1cc(OC(F)(F)F)ccc1F)CC2` [Example 30, 3-{7-fluoro-2-[2-fluoro-5-(trifluoromethoxy)phenyl]-1,2,3,4-tetrahydroisoquinolin-6-yl}-propanoic acid] reads 0.134 µM; that for `N#Cc1c(F)cc(OC2CCC2)cc1N1CCc2c(ccc([C@H]3C[C@@H]3C(=O)O)c2F)C1` [Example 126, (1S,2S)-2-{2-[2-cyano-5-(cyclo-butyloxy)-3-fluorophenyl]-5-fluoro-1,2,3,4-tetrahydroiso-quinolin-6-yl}cyclopropane-carboxylic acid], 9.74 µM; that for `CC(CC(=O)O)c1ccc2c(c1)CCN(c1cc(OC(F)(F)F)ccc1F)C2` (single isomer, unassigned) [Example 8, 3-(2-(2-fluoro-5-(trifluoromethoxy)phenyl)-1,2,3,4-tetrahydro-isoquinolin-6-yl)-butanoic acid], 0.414 µM.
As to `Cc1c(CCC(=O)O)ccc2c1CCN(c1cc(OC3CCC3)cc(F)c1C#N)C2` [Example 157, 3-{2-[2-cyano-5-(cyclobutyloxy) 3-fluorophenyl]-5-methyl-1,2,3,4-tetrahydroisoquinolin-6-yl}-propanoic acid], the EC50 stood at 0.015 µM.
In the case of `O=C(O)CCc1ccc2c(c1F)CCN(c1cc(OC3CCC3)ccc1F)C2` [Example 81, 3-{2-[5-(cyclobutyloxy)-2-fluoro-phenyl]-5-fluoro-1,2,3,4-tetrahydro-isoquinolin-6-yl}propanoic acid], the EC50 was 0.048 µM.
As to `Cc1nc(OC2CCC2)nc(N2CCc3c(ccc(CCC(=O)O)c3F)C2)c1C#N` [Example 152, 3-{2-[5-cyano-2-(cyclobutyloxy)-6-methylpyrimidin-4-yl]-5-fluoro-1,2,3,4-tetrahydroisoquino-lin-6-yl}propanoic acid], the concentration giving a half-maximal response (EC50) amounted to 0.069 µM.
In the case of `O=C(O)[C@@H]1C[C@H]1c1ccc2c(c1F)CCN(c1cc(OC3CCC3)cc(Cl)c1F)C2` [Example 123, (1R,2R)-2-{2-[3-chloro-5-(cyclobutyloxy)-2-fluorophenyl]-5-fluoro-1,2,3,4-tetrahydroisoquinolin-6-yl}cyclopropane-carboxylic acid], the EC50 was found to be 0.766 µM.
As for `O=C(O)CCc1ccc2c(c1)CCN(c1cc(OC(F)(F)F)ccc1F)C2` [Example 27, 3-{2-[2-fluoro-5-(trifluoro-methoxy)phenyl]-1,2,3,4-tetrahydro-isoquinolin-6-yl}propanoic acid], the EC50 amounted to 0.061 µM.
Consider `O=C(O)[C@@H]1C[C@H]1c1ccc2c(c1F)CCN(c1cc(OC(F)(F)F)cc(Cl)c1F)C2` [Example 111, (1R,2R)-2-{2-[3-chloro-2-fluoro-5-(trifluoromethoxy)-phenyl]-5-fluoro-1,2,3,4-tetrahydroisoquinolin-6-yl}cyclo-propanecarboxylic acid], for which the EC50 amounted to 0.032 µM.
The result for `Cc1ccc(-n2nc(C)c(Cl)c2N2CCc3c(ccc(CCC(=O)O)c3F)C2)cc1` [Example 146, 3-{2-[4-chloro-3-methyl-1-(4-methylphenyl)-1H-pyrazol-5-yl]-5-fluoro-1,2,3,4-tetrahydroisoquinolin-6-yl}propanoic acid] reads 0.309 µM.

Broadly, the EC50 is the concentration needed to bring the measured effect to its halfway point.
